The compounds below were run against T1, TLR4 (Mus musculus, UniProt Q9QUK6) (assay: Inhibitory effect with respect to NO production (LPS/interferon γ stimulated RAW264.7 cells)). Settings: test compound 100 nM, LPS 1.25 ng/mL + mouse interferon γ 0.2 ng/mL, nitrite ion in culture supernatant.
T1 construct: endogenous in cells; host or cells: RAW264.7 (murine macrophage cell line)
T1 sequence (Q9QUK6 26-835): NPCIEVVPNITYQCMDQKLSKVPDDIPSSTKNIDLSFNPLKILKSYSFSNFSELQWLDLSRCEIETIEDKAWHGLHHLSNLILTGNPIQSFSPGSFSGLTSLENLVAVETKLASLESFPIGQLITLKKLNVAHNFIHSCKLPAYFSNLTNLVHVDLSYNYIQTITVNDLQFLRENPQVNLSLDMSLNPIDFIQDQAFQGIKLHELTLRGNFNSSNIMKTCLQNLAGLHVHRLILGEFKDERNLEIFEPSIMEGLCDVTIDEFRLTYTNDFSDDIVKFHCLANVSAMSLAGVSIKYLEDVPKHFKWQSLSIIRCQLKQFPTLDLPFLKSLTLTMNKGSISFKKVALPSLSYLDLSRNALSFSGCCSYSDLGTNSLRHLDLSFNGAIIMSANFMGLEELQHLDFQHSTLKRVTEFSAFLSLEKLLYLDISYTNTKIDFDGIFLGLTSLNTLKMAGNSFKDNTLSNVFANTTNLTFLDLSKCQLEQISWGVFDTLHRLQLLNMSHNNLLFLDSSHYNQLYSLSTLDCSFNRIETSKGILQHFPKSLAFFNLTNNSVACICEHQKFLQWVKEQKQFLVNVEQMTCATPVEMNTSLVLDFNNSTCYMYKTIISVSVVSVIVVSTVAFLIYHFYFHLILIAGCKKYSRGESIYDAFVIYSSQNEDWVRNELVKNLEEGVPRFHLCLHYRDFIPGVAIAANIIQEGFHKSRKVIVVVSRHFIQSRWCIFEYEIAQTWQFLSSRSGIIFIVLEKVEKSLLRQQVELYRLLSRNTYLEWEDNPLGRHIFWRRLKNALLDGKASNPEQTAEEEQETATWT
T1 sequence (Q9JHF9 19-160 partner): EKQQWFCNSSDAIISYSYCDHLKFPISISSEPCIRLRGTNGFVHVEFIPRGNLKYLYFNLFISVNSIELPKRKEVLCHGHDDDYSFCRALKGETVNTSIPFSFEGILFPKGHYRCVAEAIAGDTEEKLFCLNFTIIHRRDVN
Type: cell-based, murine
Protocol: Inhibitory Effect With Respect to NO Production
The inhibitory effect on TLR4 was determined using the inhibition rate due to the test compound with respect to NO production as a result of addition of lipopolysaccharide (LPS) using murine macrophage cell line RAW264.7. The cells were adjusted to 2×10^6 cells/mL using RPM1-1640 culture medium (phenol red free) supplemented with 10% inactivated bovine fetal serum, and were plated on 384 well plate so as to contain 6×10^4 cells/30 μL per well. Thereafter the cells were cultured at 37° C. overnight under 5% CO2/95% air. The test compound dissolved in DMSO was diluted 200 times using RPM1-1640 culture medium and adjusted so as to form a compound concentration of 500 nM. The prepared test compound 10 μL (final concentration 100 nM) was added to the cells, and LPS (Sigma) and mouse interferon γ (Wako Pure Chemicals) were added in amounts of 10 μL so as to form final concentrations of 1.25 ng/mL and 0.2 ng/mL respectively. The cells were further cultured overnight, and then the nitrite ion (stable NO metabolite) concentration in the culture supernatant was measured as an index of NO production. The nitrite ion concentration was assayed by adding 10 μL of 20 μg/mL 2,3-diamino naphthalene (DAN) dissolved in 0.2N HCl to 20 μL culture supernatant, incubating at room temperature for ten minutes, and then adding 10 μL of 0.5N NaOH, and measuring the fluorescent value at 460 nm (excitation wavelength 355 nm) using an EnVision plate reader (Perkin Elmer). The NO production inhibition rate (%) was calculated using the value without the addition of stimulating agent as control of 100% inhibition, and the value without the addition of the compound as control of 0% inhibition.

Row | SMILES | NO production inhibitory effect at 100 nM (% inhibition)
1 | CCOC(=O)C1=CC2(CCC1S(=O)(=O)Cc1cc(Cl)ccc1F)O[C@H](CO)[C@@H](CO)O2 (stereo partly drawn) [Compound 4, ethyl (2R,3R)-8-((5-chloro-2-fluorobenzyl)sulfonyl)-2,3-bis(hydroxymethyl)-1,4-dioxaspiro[4.5]dec-6-ene-7-carboxylate] | 100 % inhibition
2 | CCOC(=O)C1=CC2(CCC1S(=O)(=O)Cc1ccc(F)c(Cl)c1)O[C@H](CO)[C@@H](CO)O2 (stereo partly drawn) [Compound 5, ethyl (2R,3R)-8-((3-chloro-4-fluorobenzyl)sulfonyl)-2,3-bis(hydroxymethyl)-1,4-dioxaspiro[4.5]dec-6-ene-7-carboxylate] | 100 % inhibition
3 | CCOC(=O)C1=CC2(CCC1S(=O)(=O)Cc1ccc(F)cc1Cl)O[C@H](COC(C)=O)[C@@H](COC(C)=O)O2 (stereo partly drawn) [Compound 10, ethyl (2R,3R)-2,3-bis(acetoxymethyl)-8-((2-chloro-4-fluorobenzyl)sulfonyl)-1,4-dioxaspiro[4.5]dec-6-ene-7-carboxylate] | 110 % inhibition
4 | CCOC(=O)C1=CC2(CCC1S(=O)(=O)Cc1ccc(F)cc1Cl)O[C@H](COC)[C@@H](COC)O2 (stereo partly drawn) [Compound 11, ethyl (2R,3R)-8-((2-chloro-4-fluorobenzyl)sulfonyl)-2,3-bis(methoxymethyl)-1,4-dioxaspiro[4.5]dec-6-ene-7-carboxylate] | 110 % inhibition
5 | CCOC(=O)C1=CC2(CCC1S(=O)(=O)Cc1cccc(C)c1)O[C@H](CO)[C@@H](CO)O2 (stereo partly drawn) [Compound 12, ethyl (2R,3R)-2,3-bis(hydroxymethyl)-8-((3-methylbenzyl)sulfonyl)-1,4-dioxaspiro[4.5]dec-6-ene-7-carboxylate] | 100 % inhibition
6 | CCOC(=O)C1=CC2(CCC1S(=O)(=O)Cc1cccc(OC)c1)O[C@H](CO)[C@@H](CO)O2 (stereo partly drawn) [Compound 13, ethyl (2R,3R)-2,3-bis(hydroxymethyl)-8-((3-methoxybenzyl)sulfonyl)-1,4-dioxaspiro[4.5]dec-6-ene-7-carboxylate] | 100 % inhibition
7 | CCOC(=O)C1=CC2(CCC1S(=O)(=O)Cc1ccc(F)cc1Cl)O[C@H](COC(=O)CN)[C@@H](COC(=O)CN)O2 (stereo partly drawn) [Compound 16, ethyl (2R,3R)-2,3-bis((2-aminoacetoxy)methyl)-8-((2-chloro-4-fluorobenzyl)sulfonyl)-1,4-dioxaspiro[4.5]dec-6-ene-7-carboxylate] | 100 % inhibition
8 | CCOC(=O)C1=CC2(CCC1S(=O)(=O)Cc1ccc(F)cc1Br)O[C@H](CO)[C@@H](CO)O2 (stereo partly drawn) [Compound 17, ethyl (2R,3R)-8-((2-bromo-4-fluorobenzyl)sulfonyl)-2,3-bis(hydroxymethyl)-1,4-dioxaspiro[4.5]dec-6-ene-7-carboxylate] | 100 % inhibition
9 | CCOC(=O)C1=CC2(CCC1S(=O)(=O)Cc1ccc(F)cc1Cl)O[C@H](C)[C@@H](C)O2 (stereo partly drawn) [Compound 18, ethyl (2R,3R)-8-((2-chloro-4-fluorobenzyl)sulfonyl)-2,3-dimethyl-1,4-dioxaspiro[4.5]dec-6-ene-7-carboxylate] | 100 % inhibition
10 | CCOC(=O)C1=CC2(CCC1S(=O)(=O)Cc1cc(F)ccc1Cl)O[C@H](CO)[C@@H](CO)O2 (stereo partly drawn) [Compound 21, ethyl (2R,3R)-8-((2-chloro-5-fluorobenzyl)sulfonyl)-2,3-bis(hydroxymethyl)-1,4-dioxaspiro[4.5]dec-6-ene-7-carboxylate] | 100 % inhibition
11 | CCOC(=O)C1=CC2(CCC1S(=O)(=O)Cc1ccc(F)cc1Cl)OCCO2 (stereo not drawn) [Compound 22, ethyl 8-((2-chloro-4-fluorobenzyl)sulfonyl)-1,4-dioxaspiro[4.5]dec-6-ene-7-carboxylate] | 110 % inhibition
12 | CCOC(=O)C1=CC2(CCC1S(=O)(=O)Cc1ccccc1Cl)O[C@@H](CO)[C@H](CO)O2 (stereo partly drawn) [Compound 23, ethyl (2S,3S)-8-((2-chlorobenzyl)sulfonyl)-2,3-bis(hydroxymethyl)-1,4-dioxaspiro[4.5]dec-6-ene-7-carboxylate] | 100 % inhibition
13 | CCOC(=O)C1=CC2(CCC1S(=O)(=O)Cc1c(C)cccc1Cl)O[C@@H](CO)[C@H](CO)O2 (stereo partly drawn) [Compound 26, ethyl (2S,3S)-8-((2-chloro-6-methylbenzyl)sulfonyl)-2,3-bis(hydroxymethyl)-1,4-dioxaspiro[4.5]dec-6-ene-7-carboxylate] | 110 % inhibition
14 | CCOC(=O)C1=CC2(CCC1S(=O)(=O)Cc1ccc(F)cc1Cl)OC[C@@H](CNC(=O)OC(C)(C)C)O2 (stereo partly drawn) [Compound 27, ethyl (2R)-2-(((tert-butoxycarbonyl)amino)methyl)-8-((2-chloro-4-fluorobenzyl)sulfonyl)-1,4-dioxaspiro[4.5]dec-6-ene-7-carboxylate] | 98 % inhibition
15 | C#CCCCCOC[C@@H]1COC2(C=C(C(=O)OCC)C(S(=O)(=O)Cc3ccc(F)cc3Cl)CC2)O1 (stereo partly drawn) [Compound 28, ethyl (2R)-8-((2-chloro-4-fluorobenzyl)sulfonyl)-2-((hex-5-yn-1-yloxy)methyl)-1,4-dioxaspiro[4.5]dec-6-ene-7-carboxylate] | 94 % inhibition

Same assay, conditions: test compound 100 nM, LPS 1.25 ng/mL + mouse interferon γ 0.2 ng/mL, nitrite ion in culture supernatant, 0.1 µM

Row | SMILES | NO production inhibitory effect at 100 nM (% inhibition)
16 | CCOC(=O)C1=CC2(CCC1S(=O)(=O)Cc1ccc(F)cc1Cl)O[C@@H](CO)[C@H](CO)O2 (single isomer, unassigned) [Compound 6] | 92 % inhibition
17 | CCOC(=O)C1=CC2(CCC1S(=O)(=O)Cc1ccc(F)cc1Cl)O[C@H](CO)[C@@H](CO)O2 (single isomer, unassigned) [Compound 15] | 75 % inhibition
18 | CCOC(=O)C1=CC2(CCC1S(=O)(=O)C(C)c1ccc(F)cc1Cl)O[C@H](CO)[C@@H](CO)O2 (single isomer, unassigned) [Compound 19] | 110 % inhibition
19 | CCOC(=O)C1=CC2(CCC1S(=O)(=O)C(C)c1ccc(F)cc1Cl)O[C@H](CO)[C@@H](CO)O2 (single isomer, unassigned) [Compound 20] | 77 % inhibition
20 | CCOC(=O)C1=CC2(CCC1S(=O)(=O)Cc1ccc(F)cc1Cl)OC[C@@H](CO)O2 (stereo partly drawn) [Compound 8, ethyl (2R)-8-((2-chloro-4-fluorobenzyl)sulfonyl)-2-(hydroxymethyl)-1,4-dioxaspiro[4.5]dec-6-ene-7-carboxylate] | 100 % inhibition
21 | CCOC(=O)C1=CC2(CCC1S(=O)(=O)Cc1ccc(F)cc1Cl)OC[C@@H](CO)O2 (stereo partly drawn) [Compound 9, ethyl (2R)-8-((2-chloro-4-fluorobenzyl)sulfonyl)-2-(hydroxymethyl)-1,4-dioxaspiro[4.5]dec-6-ene-7-carboxylate] | 110 % inhibition

Reference: patent publication US20180118708A1, “CYCLIC COMPOUND” (Takeda Pharmaceutical Company Limited, priority 2015, published 2018)
